Measured values reported in paper PMC5971566, “Population Pharmacokinetic Analyses for Rezafungin (CD101) Efficacy Using Phase 1 Data” (Antimicrobial Agents and Chemotherapy, 2018).
Numbered stars: 1 amine (or outer) side, 2 acyl side, 3 side chain; on linkers, the order of the positions; unused ones are H or OH. Bridge positions count the residues as written; N and C are the ends. Square brackets hold non-standard residues; d marks the D form. Peptide text beside a SMILES is read from it. * marks the point of attachment. Orn(4R-OH,5R-OCH2CH2NMe3+) = C[N+](C)(C)CCO[C@@H](N[*:3])[C@H](O)C[C@H](N[*:1])C(=O)[*:2]; pTerphenylCO(4''-OnC5H11) = CCCCCOc1ccc(-c2ccc(-c3ccc(C(=O)*)cc3)cc2)cc1; hTyr(3S-OH,4S-OH) = N[C@H](C(=O)O)[C@H](O)[C@@H](O)c1ccc(O)cc1; Pro(3S-OH,4S-Me) = C[C@H]1CN[C@H](C(=O)O)[C@H]1O; Hyp = O=C(O)[C@@H]1C[C@@H](O)CN1

Legend:
[1] = Population PK model of rezafungin plasma concentrations, pooled phase 1 single- and multiple-ascending-dose i.v. data; format: in vivo, humans (healthy subjects)
Excerpt: Data were pooled from two phase 1 studies (ClinicalTrials.gov registration no. NCT02516904 and NCT02551549) previously described by Sandison et al. ([8]). The protocols and informed consent were reviewed and approved by an appropriate institutional review board before subject enrollment. The studies were designed and monitored in compliance with the ethical principles of good clinical practice and in accordance with the Declaration of Helsinki.
The first study (ClinicalTrials.gov registration no. NCT2516904) evaluated single i.v. doses of rezafungin. A total of 32 subjects were enrolled and randomized evenly to one of four cohorts. Within each cohort, six subjects were administered rezafungin and two subjects were administered placebo as a single 60-min i.v. infusion. A single rezafungin dose of 50, 100, 200, and 400 mg was administered to cohorts 1, 2, 3, and 4, respectively. In all cohorts, blood samples for PK evaluations were collected predose and at 0.25, 0.5, 1, 1.5, 2, 4, 6, 8, 12, 24, 48, and 120 h after the start of infusion and on days 7, 14 (±1 day), and 21 (±1 day).
The second study (ClinicalTrials.gov registration no. NCT02551549) evaluated multiple i.v. doses of rezafungin. A total of 24 subjects were enrolled and randomized evenly to one of three cohorts. Within cohorts 1 and 2, six subjects were administered once-weekly i.v. doses of rezafungin at 100 and 200 mg, respectively, and two subjects were administered once-weekly i.v. doses of placebo, infused over 60 min on days 1 and 8. Within cohort 3, six subjects were administered once-weekly i.v. rezafungin doses of 400 mg and two subjects were administered once-weekly i.v. doses of placebo, infused over 60 min on days 1, 8, and 15. Blood samples were collected predose and at 0.5, 1, 1.5, 2, 4, 6, 8, 12, 24, 48, and 120 h after the start of each infusion and on days 7, 14 (±1 day), 21 (±1 day), and 35 (±1 day, cohort 3 only).
(§1) All blood samples were collected using tubes with K2-EDTA. Plasma was collected by centrifugation and stored at −70°C until analysis. Samples were analyzed using a 100-μl aliquot volume and a protein-precipitation extraction procedure followed by liquid chromatography/tandem mass spectrometry analysis. The rezafungin calibration range was 10.0 ng/ml to 10,000 ng/ml, using d9-CD101 as an internal standard. The range of the assay was extended 10-fold by dilution. An AB-Sciex API 4000 system was operated in the selected reaction-monitoring mode under optimized conditions for detection of rezafungin and d9-CD101 positive ions formed by electrospray ionization. Excellent interassay accuracy and precision, as measured by the use of quality control (QC) samples, were obtained during validation. Across the range of QC samples tested (lower limit of quantitation through the high-QC range), the interassay accuracy (percent bias from nominal) ranged from 0.3% to 4.3%, while the interassay precision (percent CV) ranged from 2.7% to 5%. Dilution QC samples performed well, with −1.5% bias and an interassay precision of 3.4%.
Candidate population PK models were fit to the pooled data using Monte Carlo parametric expectation maximization as implemented in the open-source software program S-ADAPT (version 1.5.6) ([22][–][24]). The model selection criteria used to discriminate between candidate PK models included (i) evaluation of individual and population mean parameter estimates and their precision (standard error of the mean [SEM]), (ii) graphical examination of standard goodness-of-fit plots and plots of the observed versus individual predicted concentrations, (iii) reductions in both residual variability and interindividual variability, and (iv) comparison of the objective function for nested models or the Akaike information criterion ([25]) for either nested or nonnested models.
Interindividual variability was estimated for each structural population PK model parameter, where possible, by using an exponential-error model. […]

[2] = Stability of rezafungin in plasma samples (bioanalytical validation, LC-MS/MS); format: in vitro ADME; conditions: K2-EDTA plasma samples
Method: as §1

[3] = 400 mg the highest dose evaluated; cited from earlier work
Method: One of the unique features of rezafungin is its long half-life. […] This value far exceeds those reported for other echinocandins, which have terminal half-lives ranging from 9 to 52 h ([9][–][11]). […] Moreover, the model- ...

[4] = cited from earlier work
Method: One of the unique features of rezafungin is its long half-life. […] This value far exceeds those reported for other echinocandins, which have terminal half-lives ranging from 9 to 52 h ([9][–][11]). […] Given rezafungin's long half-life, it is being evaluated ...

C. albicans isolates = conditions: cited from earlier work
Excerpt: (§2) Historically, Candida albicans has been the predominant pathogen in candidemia and invasive candidiasis infections ([1]). Despite this, Candida glabrata is now emerging as a greater concern for clinicians due to a recent increase in prevalence among candidemia and invasive candidiasis infections and the pathogen's natural predisposition for expressing azole and echinocandin resistance mutations ([2], [3]). Accordingly, the incidence of infections due to C. glabrata not only has increased more than 4-fold over the past 20 years ([4]) but also has been accompanied by an increased prevalence of b ...

C. glabrata isolates = conditions: including an echinocandin-resistant C. glabrata isolate; cited from earlier work
Excerpt: as §2

Candida albicans = conditions: including azole- and echinocandin-resistant isolates; ref not given; cited from earlier work
Excerpt: as §2

Candida glabrata = conditions: including azole- and echinocandin-resistant isolates; ref not given; cited from earlier work
Excerpt: as §2

[5] = healthy subjects n = 42, i.v., four-compartment population PK model
[6] = weight power function centered on 75 kg, power fixed to 0.75
[7] = weight power function centered on 75 kg, power fixed to 1.0

CCCCCOc1ccc(-c2ccc(-c3ccc(C(=O)N[C@H]4C[C@@H](O)[C@@H](OCC[N+](C)(C)C)NC(=O)[C@@H]5[C@@H](O)[C@@H](C)CN5C(=O)[C@H]([C@@H](C)O)NC(=O)[C@H]([C@H](O)[C@@H](O)c5ccc(O)cc5)NC(=O)[C@@H]5C[C@@H](O)CN5C(=O)[C@H]([C@@H](C)O)NC4=O)cc3)cc2)cc1 [Rezafungin] ({pTerphenylCO(4''-OnC5H11)}-[Orn(4R-OH,5R-OCH2CH2NMe3+)]T[Hyp][hTyr(3S-OH,4S-OH)]T[Pro(3S-OH,4S-Me)]; lactam 1-C)
rezafungin clearance, typical 50-kg subject ([1]; final population PK model, allometric scaling, 50 kg): 0.138 L/h
rezafungin clearance, typical 100-kg subject ([1]; final population PK model, allometric scaling, 100 kg): 0.232 L/h
Q2, distributional clearance, population mean final estimate [1, 5]: 24.4 L/h
Q3, distributional clearance, population mean final estimate [1, 5]: 0.912 L/h
Q4, distributional clearance, population mean final estimate [1, 5]: 0.0739 L/h
V2, volume of distribution of the peripheral compartment, population mean final estimate [1, 5]: 12.6 L
V3, volume of distribution of the peripheral compartment, population mean final estimate [1, 5]: 8.75 L
V4, volume of distribution of the peripheral compartment, population mean final estimate [1, 5]: 27.9 L
Vc, volume of distribution of the central compartment, population mean final estimate [1, 5]: 8.94 L
clearance ([1]; human, iv, healthy subjects n = 42, i.v. 60-min infusion 50-400 mg single or once weekly, plasma, linear four-compartment model, S-ADAPT, read-out: CL, total clearance, population mean final estimate (converted)): 3.13 mL/min
CL coefficient, population mean final estimate [1, 6]: 0.187 liter/h/75 kg
Q2 coefficient, population mean final estimate [1, 6]: 24.3 liters/h/75 kg
Q3 coefficient, population mean final estimate [1, 6]: 0.908 liter/h/75 kg
Q4 coefficient, population mean final estimate [1, 6]: 0.0736 liter/h/75 kg
V2 coefficient, population mean final estimate [1, 7]: 12.5 liters/75 kg
V3 coefficient, population mean final estimate [1, 7]: 8.70 liters/75 kg
V4 coefficient, population mean final estimate [1, 7]: 27.7 liters/75 kg
Vc coefficient, population mean final estimate [1, 7]: 8.88 liters/75 kg
freeze-thaw stability [2]: stable through four freeze-thaw cycles
stability under frozen storage conditions ([2]; either at −20°C or at −70°C): at least 164 days
stability at room temperature ([2]; room temperature): at least 24 h
dose proportionality of maximum concentration, AUC and half-life [3]: dose proportional up to 400 mg
serious or severe adverse events ([4]; either phase 1 study): No serious or severe adverse events were observed
patients with moderate treatment-related adverse events ([4]; of the 42 patients evaluated, phase 1 studies): 4
safety signals ([4]; phase 1 studies): no safety signals were noted
in vivo activity against a range of C. albicans isolates (C. albicans isolates): in vivo activity
in vivo activity against a range of C. glabrata isolates (C. glabrata isolates): in vivo activity
in vitro activity against C. albicans (Candida albicans): potent in vitro activity
in vitro activity against C. glabrata (Candida glabrata): potent in vitro activity
